Measurements: patent US8193356B2, “Heterocycle compound, and production process and application thereof” (Aska Pharmaceutical Co., Ltd., priority 2005, dated 2012)

Tested on: not given
Experiment: not given
Settings: not given

melting point	Compound
206 to 209 °C	O=c1c2c(Cc3cccc(C(F)(F)F)c3)n[nH]c2c2cccnc2n1-c1cccc(OC(F)(F)F)c1 [Example 24, 5-(3-Trifluoromethoxyphenyl)-3-(3-trifluoromethylbenzyl)-1H-pyrazolo[4,3-c][1,8]naphthyridin-4(5H)-one]
276 to 278 °C	O=c1c2c(Cc3ccccc3Cl)n[nH]c2c2cccnc2n1-c1cccc(C(F)(F)F)c1 (hydrate or solvate) [Example 39, 3-(2-Chlorobenzyl)-5-(3-trifluoromethylphenyl)-1H-pyrazolo[4,3-c][1,8]-naphthyridin-4(5H)-one]
243 to 245 °C	O=c1c2c(Cc3ccc(F)cc3)n[nH]c2c2cccnc2n1-c1cccc(C(F)(F)F)c1 (hydrate or solvate) [Example 38, 3-(4-Fluorobenzyl)-5-(3-trifluoromethylphenyl)-1H-pyrazolo[4,3-c][1,8]-naphthyridin-4(5H)-one]
226 to 228 °C	O=c1c2c(Cc3ccc(F)cc3)n[nH]c2c2cccnc2n1-c1cccc(OC(F)(F)F)c1 (hydrate or solvate) [Example 32, 3-(4-Fluorobenzyl)-5-(3-trifluoromethoxyphenyl)-1H-pyrazolo[4,3-c][1,8]-naphthyridin-4(5H)-one]
229 to 231 °C	COc1ccccc1Cc1n[nH]c2c1c(=O)n(-c1cccc(C(F)(F)F)c1)c1ncccc21 (hydrate or solvate) [Example 37, 3-(2-Methoxybenzyl)-5-(3-trifluoromethylphenyl)-1H-pyrazolo[4,3-c][1,8]-naphthyridin-4(5H)-one]
273 to 275 °C	O=c1c2c(Cc3ccccc3Cl)n[nH]c2c2cccnc2n1-c1cccc(OC(F)(F)F)c1 (hydrate or solvate) [Example 33, 3-(2-Chlorobenzyl)-5-(3-trifluoromethoxyphenyl)-1H-pyrazolo[4,3-c][1,8]-naphthyridin-4(5H)-one]

Continued, compound first:

Compound	melting point
CC(c1ccccc1)c1n[nH]c2c1c(=O)n(-c1ccccc1)c1ncccc21 (centres unmarked) (hydrate or solvate) [Example 11, 5-Phenyl-3-(1-phenylethyl)-1H-pyrazolo[4,3-c][1,8]naphthyridin-4(5H)-one]	267 to 268 °C
O=c1c2c(Cc3ccccc3OC(F)(F)F)n[nH]c2c2cccnc2n1-c1ccccc1 (hydrate or solvate) [Example 4, 5-Phenyl-3-(2-trifluoromethoxybenzyl)-1H-pyrazolo[4,3-c][1,8]naphthyridin-4(5H)-one]	275 °C (dec.)
O=c1c2c(Cc3cccc(C(F)(F)F)c3)n[nH]c2c2cccnc2n1-c1ccccc1 [Example 9, 5-Phenyl-3-(3-trifluoromethylbenzyl)-1H-pyrazolo[4,3-c][1,8]naphthyridin-4(5H)-one]	303 to 305 °C
O=c1c2c(Cc3ccccc3C(F)(F)F)n[nH]c2c2cccnc2n1-c1cccc(OC(F)(F)F)c1 [Example 23, 5-(3-Trifluoromethoxyphenyl)-3-(2-trifluoromethylbenzyl)-1H-pyrazolo[4,3-c][1,8]naphthyridin-4(5H)-one]	252 to 255 °C

Tested on: TNFα production
Experiment: Inhibitory action on galactosamine- and LPS-induced TNFα production
Type: in vivo
Settings: mouse, 0.5 mg/kg orally, serum TNFα one hour after galactosamine and LPS i.v., ELISA
Procedure: A dose (0.5 mg/kg) of the test compound suspended in 0.5% (W/V) CMC-Na aqueous solution was orally administered to a mouse. After one hour, galactosamine (800 mg/kg) and LPS (5 μg/kg) were intravenously administered to induce TNFα production. The amount of TNFα in serum one hour after the administration of galactosamine and LPS was measured by ELISA method.

Compound	Inhibitory rate (%) of TNFα production in 0.5 mg/kg [%]
O=C(Nc1c(Cl)cncc1Cl)c1ccc(OC(F)F)c(OCC2CC2)c1 [Roflumilast, reference compound]	50
